This is an account of results in publication PMC10975980, “Open Meter Duo: Low-Cost Instrument for Fluorimetric Determination of Cholinesterase Activity” (Sensors (Basel, Switzerland), 2024).

The target of the test is T1, acetylcholinesterase from Electrophorus electricus (AChE, EC 3.1.1.7, type V-S) (Electrophorus electricus, UniProt O42275).
T1 construct: commercial native electric eel enzyme, type V-S (Merck), crude enzyme protein dissolved in PBS with BSA as stabilizer
The test is described as follows: fluorimetric indoxyl acetate assay (Open Meter Duo). In kind it is biochemical. An excerpt: fluorimetric indoxyl acetate assay (Open Meter Duo) on acetylcholinesterase from Electrophorus electricus (AChE, EC 3.1.1.7, type V-S)

T1 sequence (O42275 24-633): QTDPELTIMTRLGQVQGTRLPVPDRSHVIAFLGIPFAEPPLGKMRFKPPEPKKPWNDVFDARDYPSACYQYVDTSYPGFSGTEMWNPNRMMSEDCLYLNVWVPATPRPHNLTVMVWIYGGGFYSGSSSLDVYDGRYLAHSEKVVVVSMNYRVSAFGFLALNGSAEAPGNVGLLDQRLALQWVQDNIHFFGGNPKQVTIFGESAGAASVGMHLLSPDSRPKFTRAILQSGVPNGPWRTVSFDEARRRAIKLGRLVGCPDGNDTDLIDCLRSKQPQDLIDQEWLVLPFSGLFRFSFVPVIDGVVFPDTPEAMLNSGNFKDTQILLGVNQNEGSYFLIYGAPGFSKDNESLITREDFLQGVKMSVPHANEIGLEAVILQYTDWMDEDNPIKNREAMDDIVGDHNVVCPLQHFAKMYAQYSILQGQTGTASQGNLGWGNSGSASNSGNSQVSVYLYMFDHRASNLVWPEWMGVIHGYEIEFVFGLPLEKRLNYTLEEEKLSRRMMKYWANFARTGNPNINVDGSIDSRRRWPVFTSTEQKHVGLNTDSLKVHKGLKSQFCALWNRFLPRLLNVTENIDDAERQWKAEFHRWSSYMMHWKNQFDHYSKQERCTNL

In general, IC50 refers to the concentration needed to halve the response being measured. A higher IC50 goes with weaker potency. As to `CNC(=O)Oc1cccc2c1OC(C)(C)C2` [Carbofuran], the half-inhibitory concentration (IC50) is 84.3 nM.
